System: imiquimod-induced psoriatic mice
Conditions: subcutaneous injection of CysA (3 mg/mL, 100 μL, 7 times, day 1 to day 7); psoriasis mice; HPLC; mean ± SD
Description: BALB/c mice were used to develop the psoriatic model. […] The back hair of the mice was shaved.
Briefly, blood (500 μL) was collected from the mice orbit and mixed with 4 mL ether. […] Mice skin, liver, and kidney samples were collected and weighed. […] In addition, the mice skin in the treatment area and the non-treated area was cryo-sectioned and stained with hematoxylin and eosin. The epidermal thickness of each skin sample was measured at three random sites with ImageJ software (V1.8.0).

cyclosporine A [CysA]
drug accumulation in mice kidney: 64.07 ± 10.25 (μg/g)/mg

Source: publication PMC8709454, “Enhanced Skin Delivery of Therapeutic Peptides Using Spicule-Based Topical Delivery Systems” (Pharmaceutics, 2021)
